In article PMC5387716, “Discovery of monocarbonyl curcumin-BTP hybrids as STAT3 inhibitors for drug-sensitive and drug-resistant breast cancer therapy” (Scientific Reports, 2017):

What was measured:
[1] = tested on: P-gp; assay: Western blot of P-gp; assay type: cell-based, human; conditions: MCF-7/DOX cells, 24 h
Experimental: (§1) MCF-7 or MCF-7/DOX cells were incubated with various concentrations of 6b for 24 h. After trypsinization, cells were treated with 1× RIPA lysis buffer (50 mM Tris–HCl, pH 7.4, 150 mM NaCl, 0.25% deoxycholic acid, 1% NP-40, 1 mM EDTA and protease inhibitors) (Amresco, Solon, USA) to extract the total proteins. An aliquot of proteins from the total cell lysates (30 to 60 μg/lane) was separated by sodium dodecyl sulfate (10%) polyacrylamide gel electrophoresis (SDS–PAGE, Bio-Rad Laboratories, Hercules, CA), wet-transferred to NC membrane (Bio-Rad Laboratories, Hercules, CA) and blotted with primary antibodies specific for STAT3, p-STAT3, p-Jak2, Jak2, p-Src, Src, Erk, P-Erk, PARP, cleaved PARP, Bcl-2, Bax, Cyclin D1, P-gp and GAPDH. Bound immuno-complexes were detected using ChemiDOC™ XRS + system (Bio-Rad Laboratories, Hercules, CA).

[2] = tested on: STAT3; assay: EMSA of STAT3 DNA-binding activity (hSIE probe); assay type: cell-based, human; conditions: nuclear extracts of MCF-7 cells, 24 h
Experimental: MCF-7 cells were cultured overnight and then treated with compound 6b in fresh regular growth medium for 24 h. The cells were harvested and nuclear extract preparations and EMSA analysis were carried out as previously described. The ^32P-labeled oligonucleotide, hSIE probe, was used to bind STAT3.

[3] = tested on: LO2 cells; assay: MTT anti-proliferative assay, LO2; assay type: cell-based; conditions: normal human liver cells, Table 2 prints no unit, μM
Experimental: All cell lines were purchased from Cell Bank of Shanghai Institute of Biochemistry and Cell Biology, Chinese Academy of Sciences (Shanghai, China). Human breast carcinoma cells (MCF-7 and MCF-7/DOX), breast epithelial cells (MCF-10A) and normal human liver cells (LO2) were maintained in RPMI-1640 medium. All cells were supplemented with 12% fetal bovine serum containing 50 μg/ml penicillin and 50 μg/ml streptomycin. Cells were grown to 80% confluency in a tissue culture flask at 37 °C in a humidified atmosphere containing 5% CO2, and then were trypsinized with 1 × Trypsin-Versene and split. The MCF-7/DOX cell line we used was established from its parental cell line MCF-7 cell by gradually increasing the concentration of DOX to which the cells were exposed in a stepwise manner over a period of 8 months. […] The cells were incubated in drug-free medium for at least 1 week before use.
Cells (MCF-7, MCF-7/DOX, MCF-10A, LO2) were seeded in 96-well plates at a density of 3,000–6,000 cells per well. The cells were incubated overnight (16 h) in a humidified 5% CO2 incubator at 37 °C. After media removal, different concentrations of test compounds were added in triplicate to the plates in 200 μL of fresh media and were incubated with the cells at 37 °C for 48 h. […] Cell viability was evaluated using 3-(4, 5-dimethylthiazolyl)-2,5-diphenyltetrazoliumbromide (MTT). The absorbance was read by an ELISA reader (SpectraMax Plus384, Molecular Devices, Sunnyvale, CA) at a test wavelength of 570 nm and a reference wavelength of 630 nm. Cell viability was calculated using the following formula: […]

[4] = tested on: MCF-7 cells; assay: ROS detection by DCFH-DA flow cytometry, MCF-7; assay type: cell-based, human; conditions: MCF-7, different concentrations (1, 2, 4 μM), 24 h
Experimental: MCF-7 or MCF-7/DOX cells were seeded at a density of 3 × 10^5 cells per well of a 6-well plate and treated with various concentrations of 6b (0, 1, 2, 4 μM) or 4 μM curcumin for 24 h. DCFH-DA was dissolved in serum-free medium and diluted to a final concentration of 10 μM. After treatment with 6b, the growth media was replaced with serum-free medium containing the probe. After incubation for 20 min at 37 °C, cells were washed with serum-free medium twice, digested by trypsin and resuspended in pre-warmed PBS buffer. The samples were then subjected to a flow cytometry assay using a BD FACSCalibur flow cytometer (Becton & Dickinson Company, Franklin Lakes, NJ).

[5] = tested on: STAT3; assay: Immunofluorescence of p-STAT3 nuclear translocation; assay type: cell-based, human; conditions: MCF-7 cells, 6 h then IL-6 50 ng/ml 30 min
Experimental: The basic protocol for the analysis of p-STAT3 subcellular location has been previously described. Briefly, MCF-7 cells were starved overnight, followed by incubation with 6b for 6 h. Cells were then stimulated with 50 ng/ml IL-6 for 30 min before being harvested in Tris-buffered saline (TBS) containing 1 mM sodium orthovanadate. Cells were transferred to polylysine-coated slides by cytospin and air dried for 20 min at room temperature. After being fixed in 2% of paraformaldehyde for 10 min and permeabilized in 0.1% Triton X-100 for 5 min, cells were blocked in TBS containing 5% bovine serum albumin for 1 h at room temperature before being stained with p-STAT3 (Tyr705) overnight at 4 °C. Then, cells were gently washed and incubated with FITC–conjugated, goat, anti-rabbit IgG (Beyotime Biotechnology Ltd). Finally, slides were incubated with 5 μg/ml of 4′,6-diamidino-2-phenylindole (DAPI, Beyotime) for 5 min. The subcellular location and relative abundance of p-STAT3 were immediately analyzed with an ImageXpress Micro Confocal analysis.

[6] = tested on: Bcl-2 gene; assay: Quantitative real-time RT-PCR of Bcl-2; assay type: cell-based, human; conditions: 24 h
Experimental: Levels of mRNA expression were analyzed with the RT-PCR assay, with total RNA isolated from MCF-7 or MCF-7/DOX cells using an EASYspin Plus tissue/cell RNA extraction kit (Aidlab Biotechnologies Co. Ltd). RNA was quantified by measuring absorption at 260 nm and 1 μg of RNA was reverse transcribed to cDNA using the Transcriptor First Strand cDNA Synthesis Kit (Roche Diagnostics, Basel, Switzerland). Thermal cycling conditions included 95 °C initial denaturation for 5 min, followed by 40 cycles of denaturation (10 s at 95 °C), annealing (15 s at 60 °C) and extension (15 s at 72 °C with a single fluorescence measurement), a melt curve program (60–95 °C with a 0.11 °C/s heat increase and continuous fluorescence measurement) and a cooling step to 40 °C. The Δ cycle threshold method was used for the calculation of relative differences in mRNA abundance with a LightCycler 480 (Roche Molecular Biochemicals, Mannheim, Germany). The data were normalized to the expression of GAPDH. The results were expressed as fold-changes. The RT-PCR primers that were used in this study are listed in the supporting information.

[7] = tested on: STAT3; assay: Western blot of STAT3 phosphorylation; assay type: cell-based, human; conditions: MCF-7 and MCF-7/DOX cells
Experimental: as §1

In the case of `COc1ccc(/C=C/C(=O)N2CCN(C(=O)C3=Cc4cc(Br)ccc4S3(=O)=O)CC2)cc1` [Compound 6b, (E)-1-(4-(5-bromo-1,1-dioxidobenzo[b]thiophene-2-carbonyl)piperazin-1-yl)-3-(4-methoxyphenyl)prop-2-en-1-one], the P-gp expression [1] is reported as “decreased P-gp expression in MCF-7/DOX cells in a dose-dependent manner”, the “STAT3 DNA-binding activity” value [2] is reported as “strongly inhibited STAT3 DNA-binding activity in a dose-dependent manner” and the IC50 ([3]; 48 h) is reported as 8.31 ± 0.41 µM. For the same molecule, the IC50 ([3]; Homo sapiens, L02, 48 h) was 8.3 µM, the “increase of ROS levels” value [4] was 2–8 fold and the melting point was 250 to 251 °C. The “p-STAT3 level in the nucleus” value [5] was “sharp decrease”, the “decrease in the gene expression level of Bcl-2” value (from here on “decrease”) ([6]; MCF-7/DOX cells, 1.0 μM) was 27.5% and the “decrease” value ([6]; MCF-7/DOX cells, 2.0 μM) was 43.5%. For the same molecule, the “decrease” value ([6]; MCF-7/DOX cells, 4.0 μM) was 71.0%, the “Bcl-2 gene level (in words)” value ([6]; MCF-7 and MCF-7/DOX cells) was “decreased in a dose-dependent manner” and the “decrease” value ([6]; MCF-7 cells, 1.0 μM) was 11.7%. For the same molecule, the “decrease” value ([6]; MCF-7 cells, 2.0 μM) was 45.8%, the “decrease” value ([6]; MCF-7 cells, 4.0 μM) was 61.2% and the p-STAT3 level ([7]; 1.0 μM) was “significantly inhibited”. The “STAT3 phosphorylation at the Ser727 residue” value ([7]; 24 h) was “little effect”, the “STAT3 phosphorylation at the pTyr705 residue” value ([7]; 24 h) was “dose-dependent inhibition” and the “total STAT3 protein level” value ([7]; 24 h) was “little effect”.
